The values below come from patent publication US20260109709A1 (MIRATI THERAPEUTICS, INC., priority 2021, published 2026).

SMILES strings stand for the structures. Structures can show the parent of a compound that is named as a salt. Where two headings read alike, the source gives them in different places. Where only a bound is given, the exact number is not on record here.

The target in this assay is T1, PRMT5/MEP50 complex (Homo sapiens, UniProt O14744).
T1 construct: purchased Reaction Biology Corporation
T1 sequence (O14744 2-637 limits assumed): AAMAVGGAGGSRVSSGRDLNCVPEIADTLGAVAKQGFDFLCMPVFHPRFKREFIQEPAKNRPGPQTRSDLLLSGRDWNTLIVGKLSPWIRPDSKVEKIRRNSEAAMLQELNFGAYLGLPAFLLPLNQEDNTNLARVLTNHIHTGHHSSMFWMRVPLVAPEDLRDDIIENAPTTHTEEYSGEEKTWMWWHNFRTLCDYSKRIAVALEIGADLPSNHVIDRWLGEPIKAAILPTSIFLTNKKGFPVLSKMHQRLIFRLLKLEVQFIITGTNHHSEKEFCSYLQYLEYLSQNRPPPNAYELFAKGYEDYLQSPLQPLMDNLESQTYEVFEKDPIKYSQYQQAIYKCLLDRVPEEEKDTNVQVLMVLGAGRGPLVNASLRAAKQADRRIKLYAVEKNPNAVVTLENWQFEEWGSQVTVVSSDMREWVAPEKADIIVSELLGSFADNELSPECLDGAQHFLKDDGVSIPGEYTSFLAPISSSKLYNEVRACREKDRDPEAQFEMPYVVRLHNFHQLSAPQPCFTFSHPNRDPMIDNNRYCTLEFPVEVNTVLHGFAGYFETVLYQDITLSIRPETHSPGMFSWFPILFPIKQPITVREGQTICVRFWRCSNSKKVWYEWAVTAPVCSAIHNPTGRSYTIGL
T1 sequence (Q9BQA1 2-342 partner limits assumed): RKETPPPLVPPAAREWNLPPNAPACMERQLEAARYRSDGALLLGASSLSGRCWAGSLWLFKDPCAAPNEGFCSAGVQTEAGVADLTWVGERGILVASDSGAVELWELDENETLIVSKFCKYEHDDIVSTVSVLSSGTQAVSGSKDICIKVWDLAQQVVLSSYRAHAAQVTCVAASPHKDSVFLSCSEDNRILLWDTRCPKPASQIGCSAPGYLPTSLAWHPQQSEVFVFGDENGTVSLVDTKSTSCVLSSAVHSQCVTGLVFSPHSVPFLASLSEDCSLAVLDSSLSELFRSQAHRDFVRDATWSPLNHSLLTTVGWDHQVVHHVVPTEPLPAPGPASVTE
Nature of the assay: PRMT5:MEP50 FlashPlate Assay (histone H4 peptide methylation). Type of assay: biochemical. Particulars: 40 nM H4 (1-15) peptide, 1 μM SAM. As for the experimental part:
The PRMT5 inhibitory activity of compounds of the present invention was determined using a PRMT5: MEP50 FlashPlate Assay and a PRMT5: MEP50 HotSpot Assay (Reaction Biology Corporation).
The assay uses purified human, PRMT5 enzyme to convert S-adenosyl-L-[methyl-3H]methionine plus histone H4 L-arginine to S-adenosyl-L-homocysteine plus histone H4 [methyl-3H]-L-arginine. The assay was carried out using Streptavidin-coated FlashPlates (Perkin Elmer), which contained a scintillant embedded in the plastic of the plate. The histone H4 peptide substrate was conjugated with biotin, which binds to the streptavidin-coated well of the plate, placing the H4 peptide in close proximity to the side well and the scintillant. The transfer of the tritiated methyl group from S-adenosyl-L-[methyl-3H]methionine to the bound histone H4 peptide generated a radiolabeled histone H4, which was quantitated by measuring in a scintillation counter to determine the activity of PRMT5 enzyme in the presence and absence of compound. […] Briefly, compounds of the present invention were solubilized in 100% DMSO at a highest concentration of 10 mM. […] Control samples lacking compound, PRMT5/MEP50 complex or various reaction components also were prepared and processed in parallel with compound test samples. SAH was used as a positive control for assay validation. To measure PRMT5 inhibitory activity, 3 nM PRMT5/MEP50 complex (Reaction Biology Corporation) was preincubated with test compound in assay buffer containing 40 nM histone H4 peptide (amino acids 1-15)-Biotin conjugate for 20 min at room temperature. The enzymatic reaction was initiated by adding 1 μM tritiated S-adenosyl methionine (final concentration) and the reaction is allowed to proceed for 20 min. The reaction was stopped and the amount of bound, tritiated H4 peptide in each sample was determined using a scintillation counter.

With `CCO[C@@H]1COC[C@H]1Nc1cccc2c1nc(N)n2C` (racemic) [Example 1-7, rac-N4-((3R,4S)-4-ethoxytetrahydrofuran-3-yl)-1-methyl-1H-benzo[d]imidazole-2,4-diamine], the IC50 (IC50 + 2 μM MTA, plus 2 μM MTA) was more than 300 µM.

Turning to `Cn1c(N)nc2c(NCCN3CC4CC4C3)cccc21` (stereo not drawn) [Example 1-8, N4-(2-(3-azabicyclo[3.1.0]hexan-3-yl)ethyl)-1-methyl-1H-benzo[d]imidazole-2,4-diamine], the IC50 (IC50 + 2 μM MTA, plus 2 μM MTA) was more than 300 µM.

With `Cn1c(N)nc2c(Nc3cnn(CCN4CCCC4=O)c3)cccc21` [Example 1-13, 1-(2-(4-((2-amino-1-methyl-1H-benzo[d]imidazol-4-yl)amino)-1H-pyrazol-1-yl)ethyl)pyrrolidin-2-one], the IC50 (IC50 + 2 μM MTA, plus 2 μM MTA) was more than 300 µM.

On to `Cn1c(N)nc2c(Nc3ccncc3)cccc21` [Example 1-31, 1-methyl-N4-(pyridin-4-yl)-1H-benzo[d]imidazole-2,4-diamine], for which, where the note is “IC50 + 2 μM MTA, plus 2 μM MTA”, the IC50 was more than 300 µM.

Regarding `Cn1c(N)nc2c(Nc3ccncn3)cccc21` [Example 1-32, 1-methyl-N4-(pyrimidin-4-yl)-1H-benzo[d]imidazole-2,4-diamine], where the note is “IC50 + 2 μM MTA, plus 2 μM MTA”, the IC50 was more than 300 µM.

For `Cc1nnc(CN(C)c2cccc3c2nc(N)n3C)n1C` [Example 1-50, N4-((4,5-dimethyl-4H-1,2,4-triazol-3-yl)methyl)-N4,1-dimethyl-1H-benzo[d]imidazole-2,4-diamine], under “IC50 + 2 μM MTA, plus 2 μM MTA”, the IC50 was more than 300 µM.

As to `CN(Cc1nnc2n1CCOC2)c1cccc2c1nc(N)n2C` [Example 1-51, N4-((5,6-dihydro-8H-[1,2,4]triazolo[3,4-c][1,4]oxazin-3-yl)methyl)-N4,1-dimethyl-1H-benzo[d]imidazole-2,4-diamine], the IC50 (IC50 + 2 μM MTA, plus 2 μM MTA) is more than 300 µM.

As for `Cn1c(N)nc2cc(-c3cncnc3)ccc21` [Example 1-52, 1-methyl-5-(pyrimidin-5-yl)-1H-benzo[d]imidazol-2-amine], the IC50 (IC50 + 2 μM MTA, plus 2 μM MTA) is more than 300 µM.

With `Cn1c(N)nc2cc(-c3cccnc3)ccc21` [Example 1-54, 1-methyl-5-(pyridin-3-yl)-1H-benzo[d]imidazol-2-amine], the IC50 (IC50 + 2 μM MTA, plus 2 μM MTA) is more than 300 µM.

As for `Cc1ncccc1-c1ccc2c(c1)nc(N)n2C` [Example 1-58, 1-methyl-5-(2-methylpyridin-3-yl)-1H-benzo[d]imidazol-2-amine], the IC50 (IC50 + 2 μM MTA, plus 2 μM MTA) is more than 300 µM.

As for `Cn1c(N)nc2cc(-c3cn[nH]c3)ccc21` [Example 1-60, 1-methyl-5-(1H-pyrazol-4-yl)-1H-benzo[d]imidazol-2-amine], the IC50 (IC50 + 2 μM MTA, plus 2 μM MTA) is more than 300 µM.

As to `Cn1c(N)nc2cc(-c3occc3C#N)ccc21` [Example 1-61, 2-(2-amino-1-methyl-1H-benzo[d]imidazol-5-yl)furan-3-carbonitrile], the IC50 (IC50 + 2 μM MTA, plus 2 μM MTA) was found to be 34.5 µM.

With `Cn1c(N)nc2c(-c3cncnc3)cccc21` [Example 1-62, 1-methyl-4-(pyrimidin-5-yl)-1H-benzo[d]imidazol-2-amine], where the note is “IC50 + 2 μM MTA, plus 2 μM MTA”, the IC50 is more than 300 µM.

Take `Cn1c(N)nc2c(-c3cccnc3)cccc21` [Example 1-64, 1-methyl-4-(pyridin-3-yl)-1H-benzo[d]imidazol-2-amine]: for the setting “IC50 + 2 μM MTA, plus 2 μM MTA”, the IC50 was more than 300 µM.

`Cn1c(N)nc2c(-c3ccccc3)cccc21` [Example 1-65, 1-methyl-4-phenyl-1H-benzo[d]imidazol-2-amine]: for the setting “IC50 + 2 μM MTA, plus 2 μM MTA”, the IC50 is more than 300 µM.

Take `Cn1c(N)nc2c(-c3ccncc3)cccc21` [Example 1-66, 1-methyl-4-(pyridin-4-yl)-1H-benzo[d]imidazol-2-amine]: the IC50 (IC50 + 2 μM MTA, plus 2 μM MTA) was more than 300 µM.

As for `Cn1nccc1-c1cccc2c1nc(N)n2C` [Example 1-67, 1-methyl-4-(1-methyl-1H-pyrazol-5-yl)-1H-benzo[d]imidazol-2-amine], the IC50 (IC50 + 2 μM MTA, plus 2 μM MTA) is more than 300 µM.

For the molecule `Cn1ccc(-c2cccc3c2nc(N)n3C)n1` [Example 1-68, 1-methyl-4-(1-methyl-1H-pyrazol-3-yl)-1H-benzo[d]imidazol-2-amine], the IC50 (IC50 + 2 μM MTA, plus 2 μM MTA) was more than 300 µM.

Consider `Cc1cc(-c2cccc3c2nc(N)n3C)cnc1O` [Example 1-70, 5-(2-amino-1-methyl-1H-benzo[d]imidazol-4-yl)-3-methylpyridin-2-ol], for which, for the setting “IC50 + 2 μM MTA, plus 2 μM MTA”, the IC50 is more than 300 µM.

With `Cn1cc(-c2cccc3c2nc(N)n3C)ccc1=O` [Example 1-71, 5-(2-amino-1-methyl-1H-benzo[d]imidazol-4-yl)-1-methylpyridin-2(1H)-one], the IC50 (IC50 + 2 μM MTA, plus 2 μM MTA) is more than 300 µM.

Turning to `Cn1c(N)nc2c(-c3ccnnc3)cccc21` [Example 1-72], the IC50 (IC50 + 2 μM MTA, plus 2 μM MTA) is more than 300 µM.

Take `Cn1c(N)nc2cc(-c3ccnnc3)ccc21` [Example 1-73, 1-methyl-5-(pyridazin-4-yl)-1H-benzo[d]imidazol-2-amine]: the IC50 (IC50 + 2 μM MTA, plus 2 μM MTA) was more than 300 µM.

As to `Cc1nn(C(C)C)cc1Nc1cccc2c1nc(N)n2C` [Example 1-74, N4-(1-isopropyl-3-methyl-1H-pyrazol-4-yl)-1-methyl-1H-benzo[d]imidazole-2,4-diamine], the IC50 (IC50 + 2 μM MTA, plus 2 μM MTA) was more than 300 µM.

On to `Cn1c(N)nc2c(NCc3cn4cccc(F)c4n3)cccc21` [Example 1-75, N4-((8-fluoroimidazo[1,2-a]pyridin-2-yl)methyl)-1-methyl-1H-benzo[d]imidazole-2,4-diamine], for which, where the note is “IC50 + 2 μM MTA, plus 2 μM MTA”, the IC50 stood at 180 µM.

On to `Cn1c(N)nc2c(Nc3cnccn3)cccc21` [Example 1-76, 1-methyl-N4-(pyrazin-2-yl)-1H-benzo[d]imidazole-2,4-diamine], for which the IC50 (IC50 + 2 μM MTA, plus 2 μM MTA) is more than 300 µM.

Take `Cn1c(N)nc2c(Nc3ncccn3)cccc21` [Example 1-78, 1-methyl-N4-(pyrimidin-2-yl)-1H-benzo[d]imidazole-2,4-diamine]: the IC50 (IC50 + 2 μM MTA, plus 2 μM MTA) is more than 300 µM.

On to `Cn1c(N)nc2cc(Nc3cnccn3)ccc21` [Example 1-82, 1-methyl-N5-(pyrazin-2-yl)-1H-benzo[d]imidazole-2,5-diamine], for which the IC50 (IC50 + 2 μM MTA, plus 2 μM MTA) came to 50.7 µM.

`Cn1cc(-c2ccc(Cl)c3c2nc(N)n3C)cn1` [Example 2-1, 7-chloro-1-methyl-4-(1-methylpyrazol-4-yl)benzimidazol-2-amine hydrochloride]: the IC50 is, setting by setting: (IC50 + 2 μM MTA, plus 2 μM MTA) more than 300 µM; (absence of MTA, read-out: IC50) more than 300 µM.

As for `CN1C(=O)CCC1c1ccc(Cl)c2c1nc(N)n2C` (stereo not drawn) [Example 2-5, 5-(2-amino-7-chloro-1-methyl-benzimidazol-4-yl)-1-methyl-pyrrolidin-2-one hydrochloride], the IC50 (IC50 + 2 μM MTA, plus 2 μM MTA) is more than 300 µM and the IC50 (absence of MTA, read-out: IC50) is more than 300 µM.

Take `CN1CCOC(Cc2ccc(Cl)c3c2nc(N)n3C)C1` (stereo not drawn) [Example 2-6, 7-chloro-1-methyl-4-[(4-methylmorpholin-2-yl)methyl]benzimidazol-2-amine]: the IC50 by setting is: (IC50 + 2 μM MTA, plus 2 μM MTA) more than 300 µM; (absence of MTA, read-out: IC50) more than 300 µM.

Consider `Cn1c(N)nc2c(-c3cnoc3)ccc(Cl)c21` [Example 2-7, 7-chloro-4-isoxazol-4-yl-1-methyl-benzimidazol-2-amine], for which the IC50 (IC50 + 2 μM MTA, plus 2 μM MTA) was more than 300 µM and the IC50 (absence of MTA, read-out: IC50) is more than 300 µM.

Turning to `Cn1c(N)nc2cc(Cc3ccncc3)cc(C#N)c21` [Example 3-4, 2-amino-3-methyl-6-(4-pyridylmethyl)benzimidazole-4-carbonitrile], the IC50 was more than 300 µM (IC50 + 2 μM MTA, plus 2 μM MTA) and more than 300 µM (absence of MTA, read-out: IC50).

With `Cn1c(N)nc2cc(C(F)(F)c3cccnc3)cc(C#N)c21` [Example 3-17, 2-amino-6-[difluoro (3-pyridyl)methyl]-3-methyl-benzimidazole-4-carbonitrile], the IC50 by setting is: (IC50 + 2 μM MTA, plus 2 μM MTA) more than 300 µM; (absence of MTA, read-out: IC50) more than 300 µM.

Regarding `Cn1nnc(CNc2cc(C#N)c3c(c2)nc(N)n3C)c1C(F)F` [Example 3-23, 2-amino-5-(((5-(difluoromethyl)-1-methyl-1H-1,2,3-triazol-4-yl)methyl)amino)-1-methyl-1H-benzo[d]imidazole-7-carbonitrile], the IC50 was 0.43 µM (IC50 + 2 μM MTA, plus 2 μM MTA) and 155 µM (absence of MTA, read-out: IC50).

With `CCn1cnnc1CNc1cc(C#N)c2c(c1)nc(N)n2C` [Example 3-24, 2-amino-5-(((4-ethyl-4H-1,2,4-triazol-3-yl)methyl)amino)-1-methyl-1H-benzo[d]imidazole-7-carbonitrile], the IC50 turned out to be 0.73 µM (IC50 + 2 μM MTA, plus 2 μM MTA) and 280 µM (absence of MTA, read-out: IC50).

`CC(=O)N(Cc1cc(C#N)c2c(c1)nc(N)n2C)c1ccc2ccccc2c1C#N` [Example 3-25, N-[(2-amino-7-cyano-1-methyl-benzimidazol-5-yl)methyl]-N-(1-cyano-2-naphthyl) acetamide]: the IC50 (IC50 + 2 μM MTA, plus 2 μM MTA) was found to be 0.006 µM and the IC50 (absence of MTA, read-out: IC50) was determined as 2.48 µM.

On to `Cn1c(N)nc2cc(Cc3ccccn3)cc(C(F)F)c21` [Example 4-2, 7-(difluoromethyl)-1-methyl-5-(2-pyridylmethyl)benzimidazol-2-amine], for which the IC50 runs as follows: (IC50 + 2 μM MTA, plus 2 μM MTA) 122 µM; (absence of MTA, read-out: IC50) more than 300 µM.

Take `CCn1c(N)nc2ncccc21` [Example 5-1, 1-ethyl-1H-imidazo[4,5-b]pyridin-2-amine hydrochloride]: the IC50 runs as follows: (IC50 + 2 μM MTA, plus 2 μM MTA) more than 300 µM; (absence of MTA, read-out: IC50) more than 300 µM.

In the case of `Cn1c(N)nc2cc(Oc3cccnc3)cnc21` [Example 5-3, 3-methyl-6-(3-pyridyloxy) imidazo[4,5-b]pyridin-2-amine], the IC50 (IC50 + 2 μM MTA, plus 2 μM MTA) was more than 300 µM and the IC50 (absence of MTA, read-out: IC50) was more than 300 µM.
